According to ChEMBL document CHEMBL4406885, “Effect of self-assembly on antimicrobial activity of double-chain short cationic lipopeptides” (Bioorg Med Chem, 2019):
Converted amounts (≈) assume the structure as drawn. The source made the active and inactive calls. The calls are words filed in the database; no cut-off is given here. Where a SMILES comes first, the peptide text is derived from it. [ ]: non-standard residue; d: D form. The star is where a group is joined. ξ: configuration not given here. Palmitoyl = CCCCCCCCCCCCCCCC(=O)*; Myristoyl = CCCCCCCCCCCCCC(=O)*; Lauroyl = CCCCCCCCCCCC(=O)*; Decanoyl = CCCCCCCCCC(=O)*; ξDab = NCCC(N)C(=O)O; ξDap = NCC(N)C(=O)O

What was measured:
[1] = system: Lipid bilayer; experiment: Binding affinity to DPPG large unilamellar vesicles at 298 kelvin by ITC method
[2] = system: Lipid bilayer; experiment: Binding affinity to POPC large unilamellar vesicle at 0.2 mM by ITC method
[3] = system: Lipid bilayer; experiment: Binding affinity to DPPG large unilamellar vesicles at 323 kelvin by ITC method
[4] = system: Lipid bilayer; experiment: Binding affinity to POPG large unilamellar vesicle at 298 kelvin by ITC method
[5] = system: Staphylococcus aureus; experiment: Antibacterial activity against Staphylococcus aureus ATCC 25923 assessed as growth inhibition measured after 18 hrs by CLSI based method; type: functional; conditions: ATCC 25923, 18 h
[6] = system: Pseudomonas aeruginosa; experiment: Antibacterial activity against Pseudomonas aeruginosa ATCC 9027 assessed as growth inhibition measured after 18 hrs by CLSI based method; type: functional; conditions: ATCC 9027, 18 h
[7] = system: Candida albicans; experiment: Antifungal activity against Candida albicans ATCC 10231 assessed as growth inhibition measured after 48 hrs by CLSI based method; type: functional; conditions: ATCC 10231, 48 h
[8] = system: Staphylococcus epidermidis; experiment: Antibacterial activity against Staphylococcus epidermidis PCM 2118 assessed as growth inhibition measured after 18 hrs by CLSI based method; type: functional; conditions: PCM 2118, 18 h
[9] = system: Escherichia coli; experiment: Antibacterial activity against Escherichia coli ATCC 25922 assessed as growth inhibition measured after 18 hrs by CLSI based method; type: functional; conditions: ATCC 25922, 18 h
[10] = system: HaCaT; experiment: Cytotoxicity against human HaCaT cells assessed as growth inhibition measured after 24 hrs by MTT assay; type: cell-based
[11] = Critical micelle concentration of compound; type: physicochemical
[12] = Surfactant-like property of compound at CMC; type: physicochemical
[13] = Binding affinity to DPPG lipid assessed as change in melting temperature at 10:1 molar ratio of lipid:lipopeptide by FTIR analysis
[14] = Hemolytic activity in human RBC induction of hemolysis at 128 ug/ml at MIC after 60 mins by spectrophotometric method relative to control; type: cell-based, Erythrocyte; conditions: human red blood cells (erythrocytes), read-out: Activity
[15] = Critical micelle concentration of compound by ITC method; type: physicochemical

Row | SMILES | pK [1] | Activity [2] | pK [3] | pK [4] | MIC [5] [µg/mL] | MIC [6] [µg/mL] | MIC [7] [µg/mL] | MIC [8] [µg/mL] | MIC [9] [µg/mL] | CMC [11] [mM] | gammaCMC [12] [mN/meter] | ΔTm [13] [°C] | CMC [15] [mM] | IC50 [10] [µg/mL] | hemolysis at 1 h, 128 ug/ml [14] [%]
1 | CCCCCCCCCC(=O)NCC(NC(=O)CCCCCCCCC)C(=O)O (configuration not stated) | 6.59 to 7.4 | inactive | 4.5 | 6.83 to 50.7 |  |  |  |  |  |  |  |  |  |  | 
2 | CCCCCCCCCC(=O)NCCC(NC(=O)CCCCCCCCC)C(=O)O (configuration not stated) | 5.76 to 7.37 | inactive | 5.06 |  |  |  |  |  |  |  |  |  |  |  | 
3 | CCCCCCCCCCCC(=O)NCC(NC(=O)CCCCCCCCCCC)C(=O)O (configuration not stated) | 7.18 | inactive | 5.37 | 6.34 |  |  |  |  |  |  |  |  |  |  | 
4 | CCCCCCCCCCCC(=O)NCCC(NC(=O)CCCCCCCCCCC)C(=O)O (configuration not stated) | 5.14 to 7.38 | inactive | 4.52 | 4.1 |  |  |  |  |  |  |  |  |  |  | 
5 | CCCCCCCCCCCCCCCC(=O)NCC(NC(=O)CCCCCCCCCCCCCCC)C(=O)O (configuration not stated) | 4.26 to 6.99 | inactive | inactive |  |  |  |  |  |  |  |  |  |  |  | 
6 | CCCCCCCCCCCCCC(=O)NCC(NC(=O)CCCCCCCCCCCCC)C(=O)N[C@@H](CCCCN)C(=O)N[C@@H](CCCCN)C(=O)N[C@@H](CCCCN)C(N)=O (some centres not stated) (Myristoyl-[ξDap](Myristoyl)KKK-NH2) |  | inactive |  |  | > 512 | > 512 | > 512 | 128 (≈ 141 µM) | > 512 | 0.35 | 46.1 |  | 0.35 |  | 
7 | CCCCCCCCCCCCCCCC(=O)NCCCC[C@H](NC(=O)CCCCCCCCCCCCCCC)C(=O)N[C@@H](CCCCN)C(=O)N[C@@H](CCCCN)C(=O)N[C@@H](CCCCN)C(N)=O (Palmitoyl-K(Palmitoyl)KKK-NH2) |  | inactive |  |  | > 512 | > 512 | > 512 | > 512 | > 512 |  |  |  |  |  | 
8 | CCCCCCCCCCCCCCCC(=O)NCCC(NC(=O)CCCCCCCCCCCCCCC)C(=O)N[C@@H](CCCCN)C(=O)N[C@@H](CCCCN)C(=O)N[C@@H](CCCCN)C(N)=O (some centres not stated) (Palmitoyl-[ξDab](Palmitoyl)KKK-NH2) |  | inactive |  |  | > 512 | > 512 | > 512 | 256 (≈ 262 µM) | > 512 | 0.32 | 41.5 |  | 0.06 to 0.22 |  | 
9 | CCCCCCCCCCCCCCCC(=O)NCC(NC(=O)CCCCCCCCCCCCCCC)C(=O)N[C@@H](CCCCN)C(=O)N[C@@H](CCCCN)C(=O)N[C@@H](CCCCN)C(N)=O (some centres not stated) (Palmitoyl-[ξDap](Palmitoyl)KKK-NH2) |  | inactive |  |  | > 512 | > 512 | > 512 | 512 (≈ 531 µM) | > 512 | 0.32 | 45.9 |  | 0.35 to 0.7 |  | 

Continued, in another order:

Row | pK [1] | Activity [2] | pK [3] | pK [4] | MIC [5] [µg/mL] | MIC [6] [µg/mL] | MIC [7] [µg/mL] | MIC [8] [µg/mL] | MIC [9] [µg/mL] | CMC [11] [mM] | gammaCMC [12] [mN/meter] | ΔTm [13] [°C] | CMC [15] [mM] | SMILES | IC50 [10] [µg/mL] | hemolysis at 1 h, 128 ug/ml [14] [%]
10 |  | inactive |  |  | 64 (≈ 76.4 µM) | 8 (≈ 9.54 µM) | 8 (≈ 9.54 µM) | 2 (≈ 2.39 µM) | 16 (≈ 19.1 µM) |  |  |  |  | CCCCCCCCCC(=O)NCCCC[C@H](NC(=O)CCCCCCCCC)C(=O)N[C@@H](CCCCN)C(=O)N[C@@H](CCCCN)C(=O)N[C@@H](CCCCN)C(N)=O (Decanoyl-K(Decanoyl)KKK-NH2) | 18.8 (≈ 22.4 µM) | 
11 |  | inactive |  |  | 8 (≈ 9.87 µM) | 8 (≈ 9.87 µM) | 16 (≈ 19.7 µM) | 4 (≈ 4.94 µM) | 16 (≈ 19.7 µM) | 3.16 | 41.5 | 2.5 to 3 |  | CCCCCCCCCC(=O)NCCC(NC(=O)CCCCCCCCC)C(=O)N[C@@H](CCCCN)C(=O)N[C@@H](CCCCN)C(=O)N[C@@H](CCCCN)C(N)=O (some centres not stated) (Decanoyl-[ξDab](Decanoyl)KKK-NH2) | 1.16 (≈ 1.43 µM) | 
12 |  | inactive |  |  | 2 (≈ 2.51 µM) | 4 (≈ 5.02 µM) | 16 (≈ 20.1 µM) | 4 (≈ 5.02 µM) | 8 (≈ 10 µM) | 3.24 | 42.5 | 2.5 to 3 |  | CCCCCCCCCC(=O)NCC(NC(=O)CCCCCCCCC)C(=O)N[C@@H](CCCCN)C(=O)N[C@@H](CCCCN)C(=O)N[C@@H](CCCCN)C(N)=O (some centres not stated) (Decanoyl-[ξDap](Decanoyl)KKK-NH2) | 75 (≈ 94.2 µM) | 
13 |  | inactive |  |  | 64 (≈ 71.6 µM) | 256 (≈ 286 µM) | 8 (≈ 8.95 µM) | 16 (≈ 17.9 µM) | 128 (≈ 143 µM) |  |  |  |  | CCCCCCCCCCCC(=O)NCCCC[C@H](NC(=O)CCCCCCCCCCC)C(=O)N[C@@H](CCCCN)C(=O)N[C@@H](CCCCN)C(=O)N[C@@H](CCCCN)C(N)=O (Lauroyl-K(Lauroyl)KKK-NH2) | 31.1 (≈ 34.8 µM) | 
14 |  | inactive |  |  | 64 (≈ 73.9 µM) | 64 (≈ 73.9 µM) | 16 (≈ 18.5 µM) | 8 (≈ 9.23 µM) | 64 (≈ 73.9 µM) | 1.25 | 40 |  | 1.34 | CCCCCCCCCCCC(=O)NCCC(NC(=O)CCCCCCCCCCC)C(=O)N[C@@H](CCCCN)C(=O)N[C@@H](CCCCN)C(=O)N[C@@H](CCCCN)C(N)=O (some centres not stated) (Lauroyl-[ξDab](Lauroyl)KKK-NH2) | 30.7 (≈ 35.4 µM) | 13
15 |  | inactive |  |  | 32 (≈ 37.5 µM) | 128 (≈ 150 µM) | 8 (≈ 9.39 µM) | 8 (≈ 9.39 µM) | 256 (≈ 300 µM) | 1.41 | 41.3 |  | 1.53 | CCCCCCCCCCCC(=O)NCC(NC(=O)CCCCCCCCCCC)C(=O)N[C@@H](CCCCN)C(=O)N[C@@H](CCCCN)C(=O)N[C@@H](CCCCN)C(N)=O (some centres not stated) (Lauroyl-[ξDap](Lauroyl)KKK-NH2) | 43.3 (≈ 50.8 µM) | 50
16 |  | inactive |  |  | > 512 | 512 (≈ 539 µM) | 512 (≈ 539 µM) | 256 (≈ 269 µM) | > 512 |  |  |  |  | CCCCCCCCCCCCCC(=O)NCCCC[C@H](NC(=O)CCCCCCCCCCCCC)C(=O)N[C@@H](CCCCN)C(=O)N[C@@H](CCCCN)C(=O)N[C@@H](CCCCN)C(N)=O (Myristoyl-K(Myristoyl)KKK-NH2) |  | 
17 |  | inactive |  |  | > 512 | > 512 | > 512 | > 512 | > 512 | 0.45 | 46.9 |  | 0.28 to 0.53 | CCCCCCCCCCCCCC(=O)NCCC(NC(=O)CCCCCCCCCCCCC)C(=O)N[C@@H](CCCCN)C(=O)N[C@@H](CCCCN)C(=O)N[C@@H](CCCCN)C(N)=O (some centres not stated) (Myristoyl-[ξDab](Myristoyl)KKK-NH2) |  | 
